Patent US20080227766A1, “Synergistic, Silver-Containing Biocide Composition” (THOR GMBH, priority 2005, published 2008)

Legend:
[1] = test system: Pseudomonas aeruginosa (ATCC 9027); test: MIC and synergy index (Kull) in Müller-Hinton broth; type: cell-based; conditions: 72 h/25° C.
Procedure: (§1) The synergism of a combination of silver with 1,2-benzisothiazolin-3-one (BIT) was tested. Silver was used in the form of silver nitrate. […] The test organism used was the gram-negative bacterium Pseudomonas aeruginosa (ATCC 9027). For the test, aqueous mixtures with different concentrations of silver nitrate and BIT were prepared and were tested for their activity on Pseudomonas aeruginosa. The aqueous mixtures further included a Müller-Hinton broth (commercial product “Merck Nr. 10393”) as nutrient medium. The cell density of Pseudomonas aeruginosa was 10^6 microbes/ml.
(§2) The incubation time was 72 h at 25° C. Each sample was incubated at 120 rpm on an incubation shaker. After 72 h the samples were inspected for growth of Pseudomonas aeruginosa. Growth was shown through a clouding of the nutrient medium. In this way, the minimum inhibitory concentrations (MICs) of the two actives, individually and in combination, were ascertained. The MIC is the concentration at which there is no longer any clouding of the nutrient medium.
(§3) The synergism arising was represented numerically by calculation of the synergy index (SI). The calculation was made in accordance with the commonplace method of F. C. Kull et al., Applied Microbiology, vol. 9 (1961), p. 538. There the SI is calculated according to the following formula:
synergy index SI=Qa/QA+Qb/QB. […]

[2] = test system: Staphylococcus aureus (ATCC 6538); test: as above; type: cell-based
Procedure: as §1
as §2, with “The incubation time was 72 h at 25° C.” left out, “After 72 h the samples were inspected for growth of Pseudomonas aeruginosa.” left out
as §3
synergy index SI=Qa/QA+Qb/QB.
When this formula is applied to the biocide system BIT+Ag under test here, the parameters in the formula are defined as follows: • Qa=concentration of BIT in the biocide mixture of BIT+Ag • QA=concentration of BIT as a single biocide • Qb=concentration of Ag in the biocide mixture of BIT+Ag • QB=concentration of Ag as a single biocide
If the synergy index has a value of more than 1, this means that antagonism is present. If the synergy index adopts a value of 1, this means that the two biocides have an additive effect.
The experiment from example 2 was repeated in the same way but using the gram-positive test organism Staphylococcus aureus (ATCC 6538) instead of Pseudomonas aeruginosa.
Example 3 was repeated in the same way, but with N-methyl-1,2-benzisothiazolin-3-one (MBIT) as the biocidal component.
Example 3 was repeated, but using N-butyl-1,2-benzisothiazolin-3-one (BBIT) as the biocidal component.

For [Ag] [Ag, silver], the “MIC at Ag concentration Qb” value ([1]; Ag (from silver nitrate) in mixture BIT + Ag (or Ag alone)) was 25.4 ppm, the “MIC at Ag concentration Qb” value ([2]; 72 h/25° C., Ag in mixture BIT + Ag (or Ag alone)) was 19.1 ppm and the “MIC at Ag concentration Qb” value ([2]; 96 h/25° C., Ag in mixture BBIT + Ag (or Ag alone)) was 25.4 ppm. The “MIC at Ag concentration Qb” value ([2]; 96 h/25° C., Ag in mixture MBIT + Ag (or Ag alone)) was 27 ppm.
For Cn1sc2ccccc2c1=O [MBIT, N-methyl-1,2-benzisothiazolin-3-one], the “MIC at MBIT concentration Qa” value ([2]; 96 h/25° C., MBIT in mixture MBIT + Ag (or MBIT alone)) was 20 ppm.
For O=c1[nH]sc2ccccc12 [BIT, 1,2-benzisothiazolin-3-one], the “MIC at BIT concentration Qa” value ([1]; BIT in mixture BIT + Ag (or BIT alone)) was 40 ppm and the “MIC at BIT concentration Qa” value ([2]; 72 h/25° C., BIT in mixture BIT + Ag (or BIT alone)) was 20 ppm.
In the case of CCCCn1sc2ccccc2c1=O [BBIT, N-butyl-1,2-benzisothiazolin-3-one], the “MIC at BBIT concentration Qa” value ([2]; 96 h/25° C., BBIT in mixture BBIT + Ag (or BBIT alone)) is reported as 20 ppm.
